Here are results for 8 compounds from patent US9914724B2, “C-aryl glycosid derivatives, pharmaceutical composition, preparation process and uses thereof” (SHANGHAI DE NOVO PHARMATECH CO. LTD., priority 2014, dated 2018).

One experiment addresses T1, SGLT-2 (Homo sapiens, UniProt P31639).
T1 sequence (P31639 1-672): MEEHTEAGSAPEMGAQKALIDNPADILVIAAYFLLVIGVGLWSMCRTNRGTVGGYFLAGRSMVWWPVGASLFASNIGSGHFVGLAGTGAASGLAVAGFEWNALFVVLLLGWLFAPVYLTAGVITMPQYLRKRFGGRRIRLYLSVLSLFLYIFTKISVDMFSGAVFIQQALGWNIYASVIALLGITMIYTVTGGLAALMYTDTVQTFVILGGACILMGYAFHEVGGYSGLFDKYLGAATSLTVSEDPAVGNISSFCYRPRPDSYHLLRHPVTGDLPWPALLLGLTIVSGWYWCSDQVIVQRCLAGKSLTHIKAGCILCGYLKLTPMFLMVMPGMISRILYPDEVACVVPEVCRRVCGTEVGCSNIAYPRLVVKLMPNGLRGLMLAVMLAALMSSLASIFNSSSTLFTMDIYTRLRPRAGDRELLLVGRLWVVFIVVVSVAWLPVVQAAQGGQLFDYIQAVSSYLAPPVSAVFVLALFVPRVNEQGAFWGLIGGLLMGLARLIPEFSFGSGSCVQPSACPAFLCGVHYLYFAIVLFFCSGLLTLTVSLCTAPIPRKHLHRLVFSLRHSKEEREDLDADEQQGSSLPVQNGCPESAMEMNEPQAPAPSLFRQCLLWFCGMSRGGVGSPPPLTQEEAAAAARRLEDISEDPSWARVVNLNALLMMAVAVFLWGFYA
The experiment can be described thus: [14C]-AMG absorption in stable SGLT2 expressing Flp-in CHO cells (SGLT-2 activity screening assay). It is filed as cell-based. The settings on record: 14C-AMG uptake, 37° C. 1 h, 1% DMSO. The source says:
(§1) Example 1: [^14C]-AMG Absorption in Stable SGLT1 and SGLT2 Expressing Flp-in CHO Cells (SGLT-1 and SGLT-2 Activity Screening Assay)
(§2) SGLT-1 and SGLT-2 cDNA clones were purchased from OriGene. After sequencing verification, the expression vectors were constructed based on pcDNA5/FRT using conventional molecular biology method. The expression vector was transfected into Flp-in CHO cells using Lipofectamin 2000. The transfected cells were subject hygromycin selection. The single clones of cells were selected by serial dilutions 4-5 weeks after transfection. The expression of SGLT-1 ? SGLT-2 were confirmed by RT-PCR and functional assay and cell line with strong signal was selected for subsequent study.
(§3) Culture of stable SGLT-1 and SGLT-2 expressing Flp-in CHO cell line: the culture media contain F12 medium (Invitrogen), 500 μg/ml hygromycin (Calbiochem) and 10% FBS (Invitrogen). Upon 80% confluency, the cells in the T75 flask were washed three times with PBS (Invitrogen), and 5 mL of Trpsin-EDTA solution (Invitrogen) was then added. The flask was gently rotated so that all the cells were submerged in the digestion solution. After the cells detach, 10 mL of culture medium was added and single cell suspension was prepared by pipetting up and down. The cell concentration was adjusted to 3×10^5/mL, 100 μL/well was added onto clear bottom 96-well plate (Corning).
(§4) The cells were ready for absorption assay once they attached after overnight culture. 12 h after cell plating, the cells were washed once with 150 μL/well absorption solution KRH-NMG (120 mM NMG, 4.7 mM KCl, 1.2 mM MgCl2, 2.2 mM CaCl2, 10 mM HEPES, pH 7.4 1 mM Tris). The solution was then removed from the well. 2.5 μCi/mL ^14C labeled AMG (PerkinElmer) Buffer KRH-Na+ (120 mM NaCl, 4.7 mM KCl, 1.2 mM MgCl2, 2.2 mM CaCl2, 10 mM HEPES, pH 7.4 1 mM Tris) was added at […] after washing with Buffer KRH-Na+ and KRH-NMG. The corresponding compound I was immediately added at 5 μL/well, ensuring the concentration of Dimethyl Sulfoxide was 1% (v/v). The plate was subsequently incubated at 37° C. for 1 h, after which 150 μL of ice cold wash buffer (120 mM NaCl, 4.7 mM KCl, 1.2 mM MgCl2, 2.2 mM CaCl2, 10 mM HEPES, 0.5 mM phlorizin, pH 7.4 1 mM Tris) was immediately added to terminate the reaction. Each well was washed three times with wash buffer and finally the solution was removed. Caution was taken to avoid cell detachment during the procedure. 20 μL/well of Lysis Buffer (0.1 mM NaOH) was added, the plate was vortexed at 900 rpm for 5 min. 80 μL/well of scintillation solution Microsint40 was added, and vortexed at 900 rpm for 5 min. The radioactivity was assayed using MicroBeta Trilux (PerkinElmer). The data was analyzed and IC50 of the compounds was calculated using XL-fit software.

The target of another experiment is T2, SGLT-1 (Homo sapiens, UniProt P13866).
T2 sequence (P13866 1-664): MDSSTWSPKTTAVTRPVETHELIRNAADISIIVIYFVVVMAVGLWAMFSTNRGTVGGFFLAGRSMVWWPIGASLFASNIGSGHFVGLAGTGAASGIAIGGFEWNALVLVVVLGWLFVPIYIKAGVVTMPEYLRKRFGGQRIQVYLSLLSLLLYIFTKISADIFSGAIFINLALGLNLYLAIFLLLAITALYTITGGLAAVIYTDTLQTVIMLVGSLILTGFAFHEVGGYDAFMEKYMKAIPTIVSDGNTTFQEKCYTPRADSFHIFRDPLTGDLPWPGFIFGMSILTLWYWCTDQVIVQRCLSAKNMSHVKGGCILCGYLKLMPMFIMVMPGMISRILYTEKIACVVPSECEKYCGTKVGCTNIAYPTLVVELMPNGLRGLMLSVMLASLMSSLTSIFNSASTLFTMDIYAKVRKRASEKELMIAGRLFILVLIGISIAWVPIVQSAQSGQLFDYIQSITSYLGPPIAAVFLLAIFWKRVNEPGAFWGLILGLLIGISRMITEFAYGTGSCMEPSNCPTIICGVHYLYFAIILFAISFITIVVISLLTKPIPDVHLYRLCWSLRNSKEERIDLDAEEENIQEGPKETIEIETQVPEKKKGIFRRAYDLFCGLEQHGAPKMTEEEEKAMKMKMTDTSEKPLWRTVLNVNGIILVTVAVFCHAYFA
The experiment can be described thus: [14C]-AMG absorption in stable SGLT1 expressing Flp-in CHO cells (SGLT-1 activity screening assay). It is filed as cell-based. The note with it: 14C-AMG uptake, 37° C. 1 h, 1% DMSO.
Description: as §1, §2, §3, §4

Molecules are shown by their SMILES.

Turning to `OC[C@H]1O[C@@H](c2ccc(Cl)c(Cc3ccc(OCC4Cc5ccc(F)cc5O4)cc3)c2)[C@H](O)[C@@H](O)[C@@H]1O` (stereo partly drawn) [Compound I-33, (2S,3R,4R,5S,6R)-2-(4-chloro-3-(4-((6-fluoro-2,3-dihydrobenzofuran-2-yl)methoxy)benzyl)phenyl)-6-(hydroxymethyl)tetrahydro-2H-pyran-3,4,5-triol], the values for the IC50 against SGLT-2 and against SGLT-1 were 6.2 nM and 599 nM, respectively.
On the same counts, the results for `Cc1ccc([C@@H]2O[C@H](CO)[C@@H](O)[C@H](O)[C@H]2O)cc1Cc1ccc(-c2ccc(F)cc2)s1` [B, Canagliflozin, reference compound] are 4.6 nM and 287 nM.
Regarding `OC[C@H]1O[C@@H](c2ccc(Cl)c(Cc3ccc(OCC4Cc5ccccc5O4)c(F)c3)c2)[C@H](O)[C@@H](O)[C@@H]1O` (stereo partly drawn) [Compound I-12, (2S,3R,4R,5S,6R)-2-(4-chloro-3-(4-((2,3-dihydrobenzofuran-2-yl)methoxy)-3-fluorobenzyl)phenyl)-6-(hydroxymethyl)tetrahydro-2H-pyran-3,4,5-triol], the concentration for half-maximal inhibition (IC50) against SGLT-2 was found to be 11 nM; on SGLT-1 it was 1070 nM.
In the case of `OC[C@H]1O[C@@H](c2ccc(Cl)c(Cc3ccc(OCc4cc5cccc(F)c5o4)cc3)c2)[C@H](O)[C@@H](O)[C@@H]1O` [Compound I-10, (2S,3R,4R,5S,6R)-2-(4-chloro-3-(4-((7-fluorobenzofuran-2-yl)methoxy)benzyl)phenyl)-6-(hydroxymethyl)tetrahydro-2H-pyran-3,4,5-triol], the figures for the IC50 against SGLT-2 and on SGLT-1 were 12 nM and 444 nM, respectively.
Taken in the same sequence, the figures for `Cc1ccc([C@@H]2O[C@H](CO)[C@@H](O)[C@H](O)[C@H]2O)cc1Cc1ccc(OCC2Cc3ccccc3O2)cc1` (stereo partly drawn) [Compound I-25, (2S,3R,4R,5S,6R)-2-(3-(4-((2,3-dihydrobenzofuran-2-yl)methoxy)benzyl)-4-methylphenyl)-6-(hydroxymethyl)tetrahydro-2H-pyran-3,4,5-triol] were 4.1 nM and 180 nM.
Take `OC[C@H]1O[C@@H](c2ccc(Cl)c(Cc3ccc(OCC4Cc5cc(F)ccc5O4)cc3)c2)[C@H](O)[C@@H](O)[C@@H]1O` (stereo partly drawn) [Compound I-32, (2S,3R,4R,5S,6R)-2-(4-chloro-3-(4-((5-fluoro-2,3-dihydrobenzofuran-2-yl)methoxy)benzyl)phenyl)-6-(hydroxymethyl)tetrahydro-2H-pyran-3,4,5-triol]: the figures for the IC50 against SGLT-2 and at SGLT-1 were 6.7 nM and 472 nM, respectively.
For the compound `OC[C@H]1O[C@@H](c2ccc(Cl)c(Cc3ccc(OC[C@@H]4OCc5ccccc54)cc3)c2)[C@H](O)[C@@H](O)[C@@H]1O` [Compound I-38, (2S,3R,4R,5S,6R)-2-(4-chloro-3-(4-(((R)-1,3-dihydroisobenzofuran-1-yl)methoxy)benzyl)phenyl)-6-(hydroxymethyl)tetrahydro-2H-pyran-3,4,5-triol], the figures for the half-inhibitory concentration (IC50) against SGLT-2 and on SGLT-1 were 1 nM and 608 nM, respectively.
Take `OC[C@H]1O[C@@H](c2cccc(Cc3ccc(OCC4Cc5ccccc5O4)cc3)c2)[C@H](O)[C@@H](O)[C@@H]1O` (stereo partly drawn) [Compound I-30, (2S,3R,4R,5S,6R)-2-(3-(4-((2,3-dihydrobenzofuran-2-yl)methoxy)benzyl)phenyl)-6-(hydroxymethyl)tetrahydro-2H-pyran-3,4,5-triol]: the IC50 at SGLT-2 was found to be 125 nM; against SGLT-1, 9370 nM.

The IC50 is the concentration that inhibits the measured activity by half. A lower IC50 goes with greater potency.
